Laboratory results as given in the CheMixHub viscosity set.
Values joined by “and” are separate entries in the source; they are usually repeats but may differ in a detail not shown here. Equal values may be shown once. ± gives the uncertainty stated by the source.

Assays:
[1] = xn = mol fraction of the nth substance listed; conditions: 101 kPa

CC(=O)CC(C)C
viscosity
Conditions	293.15 K	298.15 K	303.15 K	308.15 K	313.15 K	318.15 K	323.15 K
100 kPa	0.59 ± 0.05 mPa·s	–	0.53 ± 0.04 mPa·s	–	0.47 ± 0.04 mPa·s	–	0.42 ± 0.03 mPa·s
101 kPa	0.575 mPa·s	0.543 mPa·s and 0.54 ± 0.017 mPa·s and 0.543 ± 0.007 mPa·s	–	0.494 mPa·s and 0.476 ± 0.016 mPa·s and 0.456 ± 0.021 mPa·s	0.443 ± 0.1 mPa·s	–	0.401 ± 0.1 mPa·s
101.3 kPa	–	0.543 ± 0.015 mPa·s	0.519 ± 0.014 mPa·s	–	0.467 ± 0.013 mPa·s	–	–
101.32 kPa	0.5848 ± 0.0071 mPa·s	0.5463 ± 0.0066 mPa·s	–	0.4871 ± 0.006 mPa·s	–	–	–
101.33 kPa	0.5848 ± 0.0071 mPa·s and 0.586 ± 0.006 mPa·s	0.5463 ± 0.0066 mPa·s and 0.542 ± 0.007 mPa·s	0.52 ± 0.005 mPa·s	0.4871 ± 0.0059 mPa·s and 0.505 ± 0.007 mPa·s	–	0.447 ± 0.006 mPa·s	–

CC(C)CC(=O)CC(C)C
100 kPa
Conditions	viscosity [mPa·s]
293.15 K	0.95 ± 0.03
298.15 K	0.905 ± 0.028
303.15 K	0.86 ± 0.03
308.15 K	0.81 ± 0.03
313.15 K	0.76 ± 0.02
318.15 K	0.72 ± 0.02
323.15 K	0.67 ± 0.02

CC(C)CC(C)(C)C
viscosity
Conditions	293.15 K	298.15 K	303.15 K	308.15 K	313.15 K	318.15 K	323.15 K
100 kPa	–	0.492 ± 0.01 mPa·s	–	0.45 ± 0.01 mPa·s	0.431 ± 0.009 mPa·s	–	–
101 kPa	0.498 ± 0.013 mPa·s	–	0.451 ± 0.01 mPa·s and 0.445 ± 0.0047 mPa·s	0.428 ± 0.009 mPa·s and 0.427 ± 0.008 mPa·s	–	0.378 ± 0.008 mPa·s	0.364 ± 0.008 mPa·s and 0.3593 ± 0.0043 mPa·s
101.33 kPa	–	0.462 ± 0.013 mPa·s and 0.492 ± 0.004 mPa·s and 0.4842 ± 0.0045 mPa·s	–	0.412 ± 0.012 mPa·s and 0.441 ± 0.003 mPa·s	0.391 ± 0.012 mPa·s and 0.4056 ± 0.0043 mPa·s	0.381 ± 0.011 mPa·s and 0.3848 ± 0.0042 mPa·s	–

CC=Cc1ccc2c(c1)OCO2
Conditions	viscosity [mPa·s]
298.15 K, 101 kPa	3.981 ± 0.048

CCC(C)N (stereo not drawn)
viscosity
Conditions	298.15 K	303.15 K	308.15 K	313.15 K	318.15 K	323.15 K
101 kPa	–	0.4024 ± 0.0036 mPa·s	0.3996 ± 0.041 mPa·s and 0.3996 ± 0.0055 mPa·s	–	–	–
101.33 kPa	0.4176 ± 0.0038 mPa·s	0.3884 ± 0.0036 mPa·s	0.3659 ± 0.0035 mPa·s	0.3465 ± 0.0033 mPa·s	0.3274 ± 0.0032 mPa·s	0.3104 ± 0.0031 mPa·s

CCC12CC3CC(CC(C3)C1)C2
100 kPa
Conditions	viscosity [mPa·s]
293.15 K	6.43 ± 0.26
298.15 K	5.606 ± 0.23
303.15 K	4.931 ± 0.2
308.15 K	4.365 ± 0.18
313.15 K	3.887 ± 0.16

CCCC(=O)[O-].CC[NH+](CC)CCO
101 kPa
Conditions	viscosity [mPa·s]
293.15 K	71.57 ± 1.6
298.15 K	53.96 ± 1.1
303.15 K	41.42 ± 0.89
308.15 K	32.34 ± 0.69
313.15 K	25.64 ± 0.55
318.15 K	20.63 ± 0.44
323.15 K	16.82 ± 0.36

CCCCCC(=O)O
Conditions	viscosity [mPa·s]
298.15 K, 101 kPa	2.814 ± 0.073
323.15 K, 101.33 kPa	1.762 ± 0.022

CCCCCCCCCCCCCC[P+](CCCCCC)(CCCCCC)CCCCCC.c1nnc[n-]1
100 kPa
Conditions	viscosity [mPa·s]
293.15 K	1320 ± 90
298.15 K	918 ± 56
303.15 K	654 ± 35
308.15 K	477 ± 23
313.15 K	354 ± 15
318.15 K	269 ± 10
323.15 K	209 ± 7

CCCCCCO
viscosity
Conditions	100 kPa	101 kPa	101.3 kPa	101.33 kPa
293.15 K	5.36 ± 0.97 mPa·s and 5.363 ± 0.063 mPa·s and 5.273 ± 0.061 mPa·s	4.963 ± 0.03 mPa·s	5.361 ± 0.12 mPa·s	4.993 ± 0.061 mPa·s
298 K	4.502 ± 0.07 mPa·s	–	–	–
298.15 K	4.45 ± 0.8 mPa·s	–	4.342 ± 0.052 mPa·s and 4.403 ± 0.1 mPa·s	–
303 K	–	–	–	3.82 ± 0.05 mPa·s
303.15 K	3.883 ± 0.11 mPa·s	–	3.69 ± 0.045 mPa·s	–
308 K	–	–	–	3.3 ± 0.05 mPa·s
308.15 K	–	–	3.139 ± 0.038 mPa·s and 3.604 ± 0.084 mPa·s	–
313 K	–	2.903 ± 0.076 mPa·s	–	2.87 ± 0.04 mPa·s and 2.82 ± 0.069 mPa·s
313.15 K	2.9 ± 0.52 mPa·s and 2.896 ± 0.034 mPa·s	2.86 ± 0.089 mPa·s and 3.451 ± 0.69 mPa·s and 2.934 ± 0.024 mPa·s	–	–
318.15 K	2.571 ± 0.03 mPa·s and 2.656 ± 0.074 mPa·s	2.397 ± 0.24 mPa·s and 2.656 ± 0.092 mPa·s	2.655 ± 0.066 mPa·s	2.601 ± 0.11 mPa·s
323 K	–	–	–	2.183 ± 0.047 mPa·s
323.15 K	2.2 ± 0.4 mPa·s	2.072 ± 0.067 mPa·s	–	2.267 ± 0.093 mPa·s

CCCC[n+]1ccccc1.F[B-](F)(F)F
101.3 kPa
Conditions	viscosity
293.15 K	223 ± 45 mPa·s and 223.1 ± 13 mPa·s
298.15 K	163 ± 33 mPa·s and 163.3 ± 7.9 mPa·s
303.15 K	121 ± 24 mPa·s and 123 ± 5 mPa·s
308.15 K	92.8 ± 19 mPa·s and 94.21 ± 3.3 mPa·s
313.15 K	72.3 ± 14 mPa·s and 70.29 ± 2.1 mPa·s
318.15 K	57.4 ± 12 mPa·s and 55.81 ± 1.6 mPa·s
323.15 K	46.3 ± 9.3 mPa·s and 45.12 ± 1.4 mPa·s

CCOCC
viscosity
Conditions	293.15 K	298.15 K	303.15 K	303.16 K
101 kPa	0.239 ± 0.006 mPa·s	–	0.212 ± 0.006 mPa·s	0.2193 ± 0.041 mPa·s and 0.2193 ± 0.081 mPa·s
101.33 kPa	0.25 ± 0.007 mPa·s	0.225 ± 0.0016 mPa·s	–	–

CCS
Conditions	viscosity [mPa·s]
298.15 K, 101 kPa	0.2091 ± 0.0019

O=C(OCc1ccccc1)c1ccccc1O
Conditions	viscosity [mPa·s]
303.15 K, 101 kPa	6.722 ± 0.075

O=C1CCCCC1
Conditions	viscosity
293.15 K, 101.3 kPa	2.546 ± 0.029 mPa·s
293.15 K, 101.33 kPa	2.315 ± 1 mPa·s
298.15 K, 101.3 kPa	1.963 ± 0.025 mPa·s
303.15 K, 101.3 kPa	1.768 ± 0.022 mPa·s and 1.915 ± 0.022 mPa·s
308.15 K, 101 kPa	1.631 ± 0.021 mPa·s and 1.632 ± 0.038 mPa·s and 1.632 ± 0.077 mPa·s
308.15 K, 101.3 kPa	1.602 ± 0.02 mPa·s and 1.585 ± 0.025 mPa·s
313.15 K, 100 kPa	1.481 ± 0.1 mPa·s
313.15 K, 101 kPa	1.476 ± 0.016 mPa·s and 1.476 ± 0.019 mPa·s and 1.481 ± 0.07 mPa·s
318.15 K, 100 kPa	1.285 ± 0.1 mPa·s
318.15 K, 101 kPa	1.285 ± 0.062 mPa·s and 1.373 ± 0.032 mPa·s and 1.373 ± 0.066 mPa·s
318.15 K, 101.33 kPa	1.311 ± 0.017 mPa·s

OCCOc1ccccc1
101 kPa
Conditions	viscosity [mPa·s]
303.15 K	12.86 ± 0.33
313.15 K	9.235 ± 0.25
323.15 K	5.927 ± 0.18

CC(C)CC(C)(C)C + c1ccccc1
[1], 308.15 K
Conditions	viscosity [mPa·s]
x1 = 0.0565	0.5093 ± 0.0049
x1 = 0.1062	0.4873 ± 0.0047
x1 = 0.1666	0.4676 ± 0.0046
x1 = 0.2409	0.4496 ± 0.0044
x1 = 0.3214	0.436 ± 0.0044
x1 = 0.412	0.4255 ± 0.0043
x1 = 0.5227	0.4188 ± 0.0043
x1 = 0.6688	0.4174 ± 0.0043
x1 = 0.8154	0.423 ± 0.0045

CCCCCC(=O)O + c1ccccc1
[1], 298.15 K
Conditions	viscosity [mPa·s]
x1 = 0.03	0.626 ± 0.017
x1 = 0.07	0.653 ± 0.017
x1 = 0.11	0.684 ± 0.018
x1 = 0.14	0.718 ± 0.019
x1 = 0.31	0.908 ± 0.024
x1 = 0.4	1.058 ± 0.028
x1 = 0.5	1.284 ± 0.034
x1 = 0.73	1.844 ± 0.048
